Reference: ChEMBL document CHEMBL5252564, “It's ok to be outnumbered - sub-stoichiometric modulation of homomeric protein complexes” (RSC Med Chem, 2023)
pKd: −log10 of the molar value. Peptide text beside a SMILES is read from it. * marks the point of attachment. X1 = CC(C)[C@H](N*)B(O)O

Legend:
[1] = biological target: Programmed cell death 1 ligand 1 (Homo sapiens) (UniProt Q9NZQ7)
Description: Binding affinity to human PD-L1 (18 to 134 residues) expressed in Escherichia coli BL21(DE3) assessed as thermal stabilization by measuring melting temperature by DSF assay

[2] = biological target: T1, ATP-dependent Clp protease proteolytic subunit (Staphylococcus aureus (strain NCTC 8325)) (UniProt Q2G036); test: Inhibition of Staphylococcus aureus ClpP assessed as active site modification at 1 uM treated for 1 hr by mass spectrometry analysis relative to control
T1 sequence (whole entry): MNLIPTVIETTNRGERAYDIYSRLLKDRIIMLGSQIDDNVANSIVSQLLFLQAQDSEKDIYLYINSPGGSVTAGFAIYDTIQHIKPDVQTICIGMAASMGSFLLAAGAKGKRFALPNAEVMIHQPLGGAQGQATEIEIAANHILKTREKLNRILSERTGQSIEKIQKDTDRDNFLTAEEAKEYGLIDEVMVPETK

[3] = Binding affinity to Escherichia coli DegP using SPMFKGV-pNA as substrate at activated state by isothermal titration calorimetry
[4] = Binding affinity to Escherichia coli DegP using SPMFKGV-pNA as substrate at resting state by isothermal titration calorimetry

Sequence of Programmed cell death 1 ligand 1 (Homo sapiens) (Q9NZQ7 whole entry): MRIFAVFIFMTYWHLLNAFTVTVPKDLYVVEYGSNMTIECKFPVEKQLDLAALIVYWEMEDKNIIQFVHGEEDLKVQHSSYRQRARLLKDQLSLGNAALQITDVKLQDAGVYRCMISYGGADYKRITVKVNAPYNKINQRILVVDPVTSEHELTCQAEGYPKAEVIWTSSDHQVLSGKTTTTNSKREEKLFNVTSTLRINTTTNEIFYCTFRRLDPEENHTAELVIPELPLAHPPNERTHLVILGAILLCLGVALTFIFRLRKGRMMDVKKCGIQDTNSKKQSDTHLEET

Which ΔTm [1] does the source give for `COc1nc(OCc2cccc(-c3ccccc3)c2C)ccc1CNCCNC(C)=O` here?
Its ΔTm is 13 °C.

For `C#CCCC[C@H]1OC(=O)[C@@H]1c1ccc(OC)cc1`, which inhibition [2] is on record?
The inhibition was 35%.

With `C#Cc1ccc(C(=O)C2CN(C(=O)CCCCCCCCC=C)S2(=O)=O)cc1` (stereo not given) as the compound, how does the inhibition [2] read?
Its inhibition is 63%.

Which results are given for `CSCC[C@H](NC(=O)[C@@H]1CCCN1C(=O)[C@@H](N)CC(=O)O)C(=O)N[C@@H](Cc1ccccc1)C(=O)N[C@@H](CCCCN)C(=O)N[C@@H](CC(C)C)C(=O)N[C@H](B(O)O)C(C)C` (H-DPMFKL-X1)?
pKd [3]: 7.48; pKd [4]: 5.22
